# Like-named read-outs stand apart in the source and are kept apart here.
# Columns and labels:
# HFD SD rat model = test: HFD SD rat model, biochemical, organ weight ratio, liver lipid and liver pathology; format: in vivo
# Description: SD rat study: 58 SD rats ♂ aged 5–6 weeks were purchased from Beijing Huafukang Biotechnology Co., Ltd. 9 animals were kept with a food control diet as normal control, and the other 49 animals were fed 40% fat, 1.25% cholesterol and 0.5% sodium cholate (HFD, D12109C, SYSE BIO, Changzhou, China) as a model group. […] Animals in the normal and model groups were given solvent by oral gavage. All drugs, including solvent, were administered consecutively for 4 weeks and once a day. After sacrifice, blood was collected and serum was isolated for the AST, ALT, TG, TC, LDL-c, and HDL-c test, and livers and hearts were weighed to calculate the liver weight ratio and the heart weight ratio, respectively. The right lobe of the liver of each rat was harvested for the TG and TC test (A110-1-1 and A111-1-1, Nanjing Jiancheng Institute of Bioengineering, Nanjing, China) according to the manufacturer's instructions. The left lobe of the liver was collected for hematoxylin-eosin staining (H and E staining) to quantify liver steatosis, inflammation, and ballooning.
# (§1) The liver samples were fixed in 10% formalin and embedded in paraffin using standard methods. The 4 μm paraffin sections were then assessed for liver histology by H and E staining and liver fibrosis by sirius red staining. The stained sections were panoramic scanned with a NanoZoomer Digital Pathology scanner (S210, Hamamatsu, Japan), and then observed with different visual fields at different magnifications, and scored for different liver lobes in the sections. The total NAS score represents the sum of the scores for steatosis (0–3), lobular inflammation (0–3), and ballooning (0–2), and ranges from 0–8 [30]. VIS7.0 software was used to analyze the area of liver fibrosis in the panoramic scanning SR staining sections, and the percentage of liver fibrosis area in the whole section area was calculated.
# [1] = Observation of diarrhea in treated animals; format: in vivo, rodents; details: animal studies
# [2] = Tissue distribution in SD rat; format: in vivo; details: for concentration at 2 h / concentration at 8 h: male, 10 mg/kg oral gavage once
# Text: [Worded in the source for another organism; this organism is reported under the same test.] Half of mice for each group (n = 3) were sacrificed 2H and 8H after drug administration, respectively. Blood, heart, and liver were collected at each time point. Blood was processed and detected as mentioned previously. The heart and liver were homogenized and added extractant. The protein of tissue samples was precipitated by vortex oscillation, and the supernatant was collected and determined by LC-MS/MS procedures.
# HFD-CHOL hamster model = test: HFD-CHOL hamster model, serum biochemical test; format: in vivo, golden hamster; details: 10 mg/kg (CS27109-M, MGL-3196) oral once a day 4 weeks, mean ± SD
# Description: Hamster study: 58 golden hamsters ♂ aged 6–8 weeks were purchased from Beijing Vital River Laboratory Animal Technology Co., Ltd. 10 animals were kept with a diet of food control as normal control, and the other 48 animals were fed 40% fat and 1.25% cholesterol (HFD-CHOL, D12108C, Research diet) as a model group. […] Animals in the normal and model group were given solvent by oral gavage. All drugs, including solvent, were administered consecutively for 4 weeks and once a day. After sacrifice, blood was collected and serum was isolated for the AST, ALT, TG, TC, LDL-c, and HDL-c test.
# WD + CCL4 mouse model = test: WD + CCL4 mouse model, biochemical, liver weight ratio and liver pathology; format: in vivo, C57/B6 mouse
# Description: C57/B6 mouse study: 61 C57/B6 mice ♂ aged 6–7 weeks were purchased from Beijing Vital River Laboratory Animal Technology Co., Ltd. Six animals were kept with a chow diet as normal control, and the other 55 animals were fed 60% fat diet (Western diet, D12492, Research diet) as the model group. […] Animals in the normal and model groups were given solvent by oral gavage. All drugs, including solvent, were administered consecutively for 4 weeks and once a day. After sacrifice, blood was collected and serum was isolated for the AST, ALT, TG, TC, LDL-c, HDL-c, and CK tests, and the livers were weighed to calculate the liver weight ratio. The left lobe of the liver of each mouse was collected for hematoxylin-eosin staining (H and E staining) and sirius red staining.
# as §1
# [3] = heart, read-out: Heart concentration
# [4] = liver, read-out: Liver concentration
# [5] = serum, read-out: Serum concentration
# [6] = WD + CCL4 mouse, 4 weeks, MGL3196 10 mg/kg, CS27109 high-dose (30 mg/kg), vs model
structure (smiles),measurement,setting,value
"CC(C)c1cc(Oc2c(Cl)cc(-n3nc(C#N)c(=O)[nH]c3=O)cc2Cl)n[nH]c1=O [MGL3196, 2-[3,5-dichloro-4-(5-isopropyl-6-oxo-1,6-dihydropyridazin-3-yloxy)phenyl]-3,5-dio xo-2,3,4,5-tetrahydro[1,2,4]triazine-6-carbonitrile, reference compound]",Liver TC,"HFD SD rat model; HFD SD rat liver, 15 mg/kg (CS27109-M, MGL-3196) oral once a day 4 weeks, mean ± SD, model 13 ± 2.2, normal 6.0 ± 0.76",12 ± 1.7 µmol/g
same,Liver TG,"HFD SD rat model; HFD SD rat liver, 15 mg/kg (CS27109-M, MGL-3196) oral once a day 4 weeks, mean ± SD, model 102 ± 36, normal 0.75 ± 12",113 ± 38 µmol/g
same,TG,"HFD SD rat model; HFD SD rat serum, 15 mg/kg (CS27109-M, MGL-3196) oral once a day 4 weeks, mean ± SD, model 0.82 ± 0.73, normal 0.53 ± 0.34",0.11 ± 0.03^∗∗∗ mmol/L
same,HDL-c,"HFD SD rat model; HFD SD rat serum, 15 mg/kg (CS27109-M, MGL-3196) oral once a day 4 weeks, mean ± SD, model 1.2 ± 0.44, normal 1.1 ± 0.13",0.94 ± 0.26 mmol/L
same,LDL-c,"HFD SD rat model; HFD SD rat serum, 15 mg/kg (CS27109-M, MGL-3196) oral once a day 4 weeks, mean ± SD, model 9.7 ± 6.1, normal 0.28 ± 0.06",1.1 ± 0.65 mmol/L
same,TC,"HFD SD rat model; HFD SD rat serum, 15 mg/kg (CS27109-M, MGL-3196) oral once a day 4 weeks, mean ± SD, model 20 ± 13, normal 1.5 ± 0.20",3.3 ± 1.3 mmol/L
same,ALT,"HFD SD rat model; HFD SD rat serum, 15 mg/kg (CS27109-M, MGL-3196) oral once a day 4 weeks, mean ± SD, model 166 ± 95, normal 32 ± 6.8",74 ± 24 U/L
same,AST,"HFD SD rat model; HFD SD rat serum, 15 mg/kg (CS27109-M, MGL-3196) oral once a day 4 weeks, mean ± SD, model 365 ± 212, normal 103 ± 21",185 ± 66 U/L
same,NAS score,"HFD SD rat model; HFD SD rat, 4 weeks, 15 mg/kg, vs model","tendency to reduce the NAS score, but without significance"
same,liver steatosis score (H and E),"HFD SD rat model; HFD SD rat, 4 weeks, CS27109 5-45 mg/kg dose-dependent, MGL3196 15 mg/kg, vs model",lessened steatosis
same,diarrhea in treated animals,[1],exhibit diarrhea
same,average of concentration liver/heart,"[2]; 10 mg/kg oral, average of 2H and 8H",22.325
same,concentration at 2 h,[2]; [3],156 ng/g
same,concentration at 8 h,[2]; [3],128 ng/g
same,concentration at 2 h,[2]; [4],3850 ng/g
same,concentration at 8 h,[2]; [4],2550 ng/g
same,concentration at 2 h,[2]; [5],1400 ng/mL
same,concentration at 8 h,[2]; [5],506 ng/mL
same,HDL-c,"HFD-CHOL hamster model; model 3.6 ± 1.1, normal 1.6 ± 0.45",2.9 ± 0.36 mmol/L
same,LDL-c,"HFD-CHOL hamster model; model 17 ± 6.1, normal 1.3 ± 0.54",8.6 ± 3.3 mmol/L
same,TG,"HFD-CHOL hamster model; model 26 ± 24, normal 2.1 ± 1.1",5.9 ± 5.6 mmol/L
same,TC,"HFD-CHOL hamster model; model 37 ± 13, normal 3.1 ± 0.72",18 ± 6.3 mmol/L
same,ALT,"HFD-CHOL hamster model; model 278 ± 174, normal 94 ± 58",206 ± 47 U/L
same,AST,"HFD-CHOL hamster model; model 638 ± 323, normal 98 ± 45",752 ± 261 U/L
same,LDL-c,"WD + CCL4 mouse model; WD + CCL4 mouse serum, 10 mg/kg (CS27109-M, MGL-3196) oral once a day 4 weeks, mean ± SD, model 1.1 ± 0.35, normal 0.43 ± 0.04",0.33 ± 0.05 mmol/L
same,TG,"WD + CCL4 mouse model; WD + CCL4 mouse serum, 10 mg/kg (CS27109-M, MGL-3196) oral once a day 4 weeks, mean ± SD, model 1.2 ± 0.34, normal 0.91 ± 0.14",1.0 ± 0.23 mmol/L
same,HDL-c,"WD + CCL4 mouse model; WD + CCL4 mouse serum, 10 mg/kg (CS27109-M, MGL-3196) oral once a day 4 weeks, mean ± SD, model 1.5 ± 0.25, normal 2.0 ± 0.08",1.2 ± 0.13 mmol/L
same,TC,"WD + CCL4 mouse model; WD + CCL4 mouse serum, 10 mg/kg (CS27109-M, MGL-3196) oral once a day 4 weeks, mean ± SD, model 4.1 ± 0.97, normal 3.0 ± 0.10",1.9 ± 0.17 mmol/L
same,CK activity,"WD + CCL4 mouse model; WD + CCL4 mouse serum, 10 mg/kg (CS27109-M, MGL-3196) oral once a day 4 weeks, mean ± SD, model 345 ± 268, normal 334 ± 193",197 ± 129 U/L
same,AST,"WD + CCL4 mouse model; WD + CCL4 mouse serum, 10 mg/kg (CS27109-M, MGL-3196) oral once a day 4 weeks, mean ± SD, model 10245 ± 4955, normal 116 ± 71",2178 ± 769 U/L
same,ALT,"WD + CCL4 mouse model; WD + CCL4 mouse serum, 10 mg/kg (CS27109-M, MGL-3196) oral once a day 4 weeks, mean ± SD, model 14003 ± 4205, normal 54 ± 15",4658 ± 1639 U/L
same,liver inflammation score (H and E),WD + CCL4 mouse model; [6],notable reduction
same,liver steatosis score (H and E),WD + CCL4 mouse model; [6],notable reduction
same,area of liver fibrosis (sirius red),"WD + CCL4 mouse model; WD + CCL4 mouse, 4 weeks, three doses of CS27109 (3, 10, 30 mg/kg), MGL3196 10 mg/kg, vs model",prominently reduced the area of the fibrosis

# — publication PMC9943626, “CS27109, A Selective Thyroid Hormone Receptor-β Agonist Alleviates Metabolic-Associated Fatty Liver Disease in Murine Models” (International Journal of Endocrinology, 2023)
